This passage reports IC50 results from patent publication US20120295923A1, “Aminocyclohexanes and Aminotetrahydropyrans and Related Compounds As Gamma-Secretase Modulators” (PFIZER INC., priority 2010, published 2012).

In general, IC50 refers to the concentration needed to halve the response being measured.

For the test, the system named is γ-secretase; production of amyloid beta protein Aβ(1-42). In words: Cell-Based γ-Secretase Assay with ELISA Readout. Particulars: human WT-APP overexpressing CHO cells. On the procedure:
The ability of compounds to modulate production of amyloid beta protein A6(1-42) was determined using human WT-APP overexpressing CHO cells. Cells were plated at 22,000 cells/100 μL well in 96 well tissue culture treated, clear plates (Falcon) in DMEM/F12 based medium and incubated for 24 hours at 37° C. Compounds for testing were diluted in 100% DMSO to achieve an eleven points, half log, dose response for IC50 determinations. Compounds were added in fresh medium to achieve 1% final DMSO. Appropriate vehicle and inhibitor controls were added to obtain maximum and minimum inhibition values for the assay before the plates were incubated for about 24 hours at 37° C.
Coating of ELISA assay plates was initiated by addition of 50 μL/well of an in-house Aβ(1-42) specific antibody at (4 μg/mL) in 0.1 M NaHCO3 (pH 9.0) into black 384-well Maxisorp® plates (Nunc) and incubated overnight at 4° C. The capture antibody was then aspirated from the ELISA assay plates and 100 μL/well of Blocking Buffer (Dulbecco's PBS, 1.5% BSA (Sigma A7030)) added. Ambient temperature incubation was allowed to proceed for a minimum of two hours before washing 2×100 μL with Wash Buffer (Dulbecco's PBS, 0.05% Tween 20). Assay Buffer (Dulbecco's PBS, 1.0% BSA (Sigma A7030), 0.05% Tween 20) 20 μL/well was then added.
After incubation overnight at 37° C., 5% CO2, 40 μL (in duplicate) of experimental conditioned media were transferred into wells of the blocked ELISA plates containing the capture antibody, followed by overnight incubation at 4° C.
After overnight incubation of the ELISA assay plates at 4° C., unbound Aβ peptides were removed thorough (4×100 μL) washes with Wash Buffer. Europium (Eu) labeled (custom labeled, Perkin Elmer) Aβ(1-16) 6e10 Monoclonal Antibody (Covance #SIG-39320 was added, (50 μL/well Eu-6e10 @ 1:5000, 20 uM EDTA) in Assay Buffer. Incubation at ambient temperature for a minimum of 2 hours was followed by (4×100 μL) washes with Wash Buffer, before 50 μL/well of Delfia Enhancement Solution (PerkinElmer) was added. Following a one hour ambient temperature incubation, the plates were read on an EnVision plate reader (PerkinElmer) using standard DELFIA TRF settings. Data analysis including inhibitory IC50 determination was performed using nonlinear regression fit analysis (in-house software) and the appropriate plate mean values for the maximum and minimum inhibition controls.
(In an ELISA, binding on a coated surface is turned into a signal by an enzyme label.)

The mark [1] stands for this setting: footnote 8: single determination, read-out: Aβ 42B IC50 (nM) (Geometric Mean of 2-8 Determinations).
The mark [2] stands for this setting: geometric mean of 2-4 determinations unless otherwise indicated (footnote 10: 6-8; footnote 14: single determination), read-out: Aβ 42B IC50.

Counter-ions that a name gives are not always drawn. Like-named read-outs stand apart in the source and are kept apart here.

As to `O=C(O)C[C@@H]1CC[C@@H](N(Cc2ccccc2F)CC2CCCC2)[C@H](c2ccc(C(F)(F)F)cc2)C1` [Example 27, {(1R,3S,4R)-4-[(cyclopentyl-methyl)(2-fluorobenzyl)amino]-3-[4-(trifluoromethyl)phenyl]cyclohexyl} acetic acid], the IC50 under setting [1] amounted to 155 nM.

With `O=C(O)C[C@@H]1CC[C@@H](N(Cc2cccc(F)c2)CC2CCCC2)[C@H](c2ccc(C(F)(F)F)cc2)C1` [Example 28, {(1R,3S,4R)-4-[(cyclopentyl-methyl)(3-fluorobenzyl)amino]-3-[4-(trifluoromethyl)phenyl]cyclohexyl} acetic acid, hydro-chloride salt], the IC50 under setting [1] came out at 230 nM.

Take `O=C(O)C[C@@H]1CC[C@@H](N2CC3(CCCC3)CC3(CCCC3)C2)[C@H](c2ccc(C(F)(F)F)cc2)C1` [Example 29, {(1R,3S,4R)-4-(13-azadispiro [4.1.4.3]tetradec-13-yl)-3-[4-(trifluoromethyl)phenyl]cyclohexyl} acetic acid]: under setting [1], the IC50 was determined as 193 nM.

With `CC(C)CCN(C1CCOCC1)[C@@H]1CC[C@@H](CC(=O)O)C[C@H]1c1ccc(C(F)(F)F)cc1` [Example 30, {(1R,3S,4R)-4-[(3-methylbutyl)(tetrahydro-2H-pyran-4-yl)amino]-3-[4-(trifluoromethyl)phenyl]cyclohexyl}acetic acid, ammonium salt], the 50% inhibitory concentration (IC50) under setting [2] was 7310 nM.

Regarding `O=C(O)C[C@@H]1CC[C@@H](N(CC2CCCCC2)C2CCOCC2)[C@H](c2ccc(C(F)(F)F)cc2)C1` [Example 31, {(1R,3S,4R)-4-[(cyclohexylmethyl)(tetrahydro-2H-pyran-4-yl)amino]-3-[4-(trifluoromethyl)phenyl]cyclohexyl}acetic acid, ammonium salt], the half-maximal inhibitory concentration (IC50) under setting [2] is 1300 nM.

Consider `CC(C)CCN(CCC1CCCCC1)[C@@H]1CC[C@@H](CC(=O)O)C[C@H]1c1ccc(C(F)(F)F)cc1` [Example 32, {(1R,3S,4R)-4-[(2-cyclohexylethyl)(3-methylbutyl)amino]-3-[4-(trifluoromethyl)phenyl]cyclohexyl}acetic acid, trifluoroacetate salt], for which, under setting [2], the half-inhibitory concentration (IC50) came out at 598 nM.

With `CC(C)CCN(Cc1nccs1)[C@@H]1CC[C@@H](CC(=O)O)C[C@H]1c1ccc(C(F)(F)F)cc1` [Example 33, {(1R,3S,4R)-4-[(3-methylbutyl)(1,3-thiazol-2-ylmethyl)amino]-3-[4-(trifluoromethyl)phenyl]cyclohexyl}acetic acid, trifluoroacetate acid], the IC50 under setting [2] stood at 3020 nM.

As for `CCC(C)CN(CC1CCCC1)[C@@H]1CC[C@@H](CC(=O)O)C[C@H]1c1ccc(C(F)(F)F)cc1` (stereo partly drawn) [Example 34, {(1R,3S,4R)-4-[(cyclopentylmethyl)(2-methylbutyl)amino]-3-[4-(trifluoromethyl)phenyl]cyclohexyl}acetic acid, ammonium salt], under setting [2], the 50% inhibitory concentration (IC50) amounted to 359 nM.

As for `CC(C)(C)CCN(CC1CCCC1)[C@@H]1CC[C@@H](CC(=O)O)C[C@H]1c1ccc(C(F)(F)F)cc1` [Example 35, {(1R,3S,4R)-4-[(cyclopentylmethyl)(3,3-dimethylbutyl)amino]-3-[4-(trifluoromethyl)phenyl]cyclohexyl}acetic acid, ammonium salt], the 50% inhibitory concentration (IC50) under setting [2] worked out at 516 nM.

As for `CC(C)(C)CN(CC1CCCC1)[C@@H]1CC[C@@H](CC(=O)O)C[C@H]1c1ccc(C(F)(F)F)cc1` [Example 36, {(1R,3S,4R)-4-[(cyclopentylmethyl)(2,2-dimethylpropyl)amino]-3-[4-(trifluoromethyl)phenyl]cyclohexyl}acetic acid, ammonium salt], the IC50 under setting [2] was 349 nM.

Consider `CC(C)(C#N)CCN(CC1CCCC1)[C@@H]1CC[C@@H](CC(=O)O)C[C@H]1c1ccc(C(F)(F)F)cc1` [Example 37, {(1R,3S,4R)-4-[(3-cyano-3-methylbutyl)(cyclopentylmethyl)amino]-3-[4-(trifluoromethyl)phenyl]cyclohexyl}acetic acid, trifluoroacetate salt], for which, under setting [2], the IC50 worked out at 2170 nM.

Take `O=C(O)C[C@@H]1CC[C@@H](N(Cc2cncnc2)CC2CCCC2)[C@H](c2ccc(C(F)(F)F)cc2)C1` [Example 38, {(1R,3S,4R)-4-[(cyclopentylmethyl)(pyrimidin-5-ylmethyl)amino]-3-[4-(trifluoromethyl)phenyl]cyclohexyl}acetic acid, trifluoroacetate salt]: under setting [2], the IC50 was found to be 5220 nM.

In the case of `O=C(O)C[C@@H]1CC[C@@H](N(CC2CCCC2)CC2(F)CCCCC2)[C@H](c2ccc(C(F)(F)F)cc2)C1` [Example 39, {(1R,3S,4R)-4-{(cyclopentylmethyl)[(1-fluorocyclohexyl)methyl]amino}-3-[4-(trifluoromethyl)phenyl]cyclohexyl}acetic acid, ammonium salt], the IC50 under setting [2] amounted to 109 nM.

As for `O=C(O)C[C@@H]1CC[C@@H](N(CCC2CCCCC2)CC2CCCC2)[C@H](c2ccc(C(F)(F)F)cc2)C1` [Example 40, {(1R,3S,4R)-4-[(2-cyclohexylethyl)(cyclopentyl-methyl)amino]-3-[4-(trifluoromethyl)phenyl]cyclohexyl}acetic acid, trifluoroacetate salt], under setting [2], the IC50 was 621 nM.

As for `O=C(O)C[C@@H]1CC[C@@H](N(CCC2CCCCO2)CC2CCCC2)[C@H](c2ccc(C(F)(F)F)cc2)C1` (stereo partly drawn) [Example 41, {(1R,3S,4R)-4-{(cyclopentylmethyl)[2-(tetrahydro-2H-pyran-2-yl)ethyl]amino}-3-[4-(trifluoromethyl)phenyl]cyclohexyl}acetic acid, trifluoroacetate salt], the IC50 under setting [2] turned out to be 5630 nM.

Consider `O=C(O)C[C@@H]1CC[C@@H](N(Cc2cscn2)CC2CCCC2)[C@H](c2ccc(C(F)(F)F)cc2)C1` [Example 42, {(1R,3S,4R)-4-[(cyclopentylmethyl)(1,3-thiazol-4-ylmethyl)amino]-3-[4-(trifluoromethyl)phenyl]cyclohexyl}acetic acid, trifluoroacetate salt], for which the 50% inhibitory concentration (IC50) under setting [2] was 1970 nM.

As to `CCC(CC)CN(CC1CCCC1)[C@@H]1CC[C@@H](CC(=O)O)C[C@H]1c1ccc(C(F)(F)F)cc1` [Example 43, {(1R,3S,4R)-4-[(cyclopentylmethyl)(2-ethylbutyl)amino]-3-[4-(trifluoromethyl)phenyl]cyclohexyl}acetic acid, trifluoroacetate salt], the 50% inhibitory concentration (IC50) under setting [2] is 162 nM.

Regarding `CC(C)CN(CC1CCCC1)[C@@H]1CC[C@@H](CC(=O)O)C[C@H]1c1ccc(C(F)(F)F)cc1` [Example 44, {(1R,3S,4R)-4-[(cyclopentylmethyl)(isobutyl)amino]-3-[4-(trifluoromethyl)phenyl]cyclohexyl}acetic acid, trifluoroacetic salt], under setting [2], the concentration for half-maximal inhibition (IC50) is 318 nM.

As to `O=C(O)C[C@@H]1CC[C@@H](N(CCC(F)(F)F)CC2CCCC2)[C@H](c2ccc(C(F)(F)F)cc2)C1` [Example 45, {(1R,3S,4R)-4-[(cyclopentylmethyl)(3,3,3-trifluoropropyl)amino]-3-[4-(trifluoromethyl)phenyl]cyclohexyl}acetic acid, trifluoroacetate salt], under setting [2], the half-inhibitory concentration (IC50) was 484 nM.

Turning to `N#Cc1ccc([C@@H]2O[C@H](CC(=O)O)CC[C@H]2N(CC2CCCC2)CC2CCCC2)cc1` [Example 46, [(2S,5R,6S)-5-[bis(cyclopentylmethyl)amino]-6-(4-cyanophenyl)tetrahydro-2H-pyran-2-yl]acetic acid, ammonium salt], the IC50 under setting [2] was found to be 2550 nM.

For the compound `O=C(O)C[C@@H]1CC[C@@H](N(CC2CCCC2)CC2CCCC2)[C@H](c2cccc(Cl)c2)O1` [Example 47, [(2S,5R,6S)-5-[bis(cyclopentylmethyl)amino]-6-(3-chlorophenyl)tetrahydro-2H-pyran-2-yl]acetic acid, ammonium salt], the IC50 under setting [2] turned out to be 1840 nM.

Consider `O=C(O)C[C@@H]1CC[C@@H](N(CCC(F)(F)F)CC2CCCC2)[C@H](c2ccc(Cl)cc2)C1` [Example 48, {(1R,3S,4R)-3-(4-chlorophenyl)-4-[(cyclopentylmethyl)(3,3,3-trifluoropropyl)amino]cyclohexyl}acetic acid, trifluoroacetate salt], for which the IC50 under setting [2] worked out at 441 nM.

Take `CCC(CC)CN(CC1CCCC1)[C@@H]1CC[C@@H](CC(=O)O)C[C@H]1c1ccc(Cl)cc1` [Example 49, {(1R,3S,4R)-3-(4-chlorophenyl)-4-[(cyclopentylmethyl)(2-ethylbutyl)amino]cyclohexyl} acetic acid, ammonium salt]: under setting [2], the half-inhibitory concentration (IC50) was 477 nM.
